One data set has as its target T1, sEH (Homo sapiens, UniProt P34913).
T1 sequence (P34913 1-555): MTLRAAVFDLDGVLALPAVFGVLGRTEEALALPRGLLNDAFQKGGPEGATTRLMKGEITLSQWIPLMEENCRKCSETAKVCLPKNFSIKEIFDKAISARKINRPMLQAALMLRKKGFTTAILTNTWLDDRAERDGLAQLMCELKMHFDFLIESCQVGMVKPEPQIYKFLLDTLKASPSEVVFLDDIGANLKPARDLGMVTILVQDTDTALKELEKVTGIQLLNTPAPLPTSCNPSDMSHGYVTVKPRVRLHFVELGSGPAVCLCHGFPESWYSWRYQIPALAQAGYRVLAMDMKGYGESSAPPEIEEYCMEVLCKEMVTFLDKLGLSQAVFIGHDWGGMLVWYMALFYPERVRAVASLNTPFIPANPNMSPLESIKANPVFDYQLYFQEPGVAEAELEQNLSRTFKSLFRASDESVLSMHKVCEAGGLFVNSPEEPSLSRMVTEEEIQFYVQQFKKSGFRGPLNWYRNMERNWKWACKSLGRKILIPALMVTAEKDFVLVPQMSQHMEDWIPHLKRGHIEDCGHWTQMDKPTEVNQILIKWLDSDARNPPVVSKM
Kind of data set: Activity as inhibitor of sEH (general statements). Format: biochemical. The source says: Derivatives of urea are transition state mimetics that form a preferred group of sEH inhibitors. […] Any particular urea derivative or other compound can be easily tested for its ability to inhibit sEH by standard assays, such as those discussed herein. The production and testing of urea and carbamate derivatives as sEH inhibitors is set forth in detail in, for example, Morisseau et al., Proc Natl Acad Sci (USA) 96:8849-8854 (1999).
One category of these inhibitors comprises inhibitors that mimic the substrate for the enzyme. The lipid alkoxides (e.g., the 9-methoxide of stearic acid) are an exemplar of this group of inhibitors.

The subject of the next data set is COX-1 and COX-2. Conditions: cited from earlier work.
A further data set has as its target Sheep sEH (Ovis aries, UniProt A0ACI6PZ20). The data set can be described thus: sEH inhibitor screen of domestic animals, radioactive assay, liver cytosolic preparation. Format: biochemical.
For data set [1] the following is noted: horse, in vivo, iv, 0.1 mg/kg, 5 days.
The conditions of data set [2]: Thoroughbred, horse, in vivo, iv, 0.1 mg/kg.
Another data set has as its target T2, Canine sEH (Canis lupus familiaris, UniProt A0A8I3NJL8).
T2 sequence (A0A8I3NJL8 1-556): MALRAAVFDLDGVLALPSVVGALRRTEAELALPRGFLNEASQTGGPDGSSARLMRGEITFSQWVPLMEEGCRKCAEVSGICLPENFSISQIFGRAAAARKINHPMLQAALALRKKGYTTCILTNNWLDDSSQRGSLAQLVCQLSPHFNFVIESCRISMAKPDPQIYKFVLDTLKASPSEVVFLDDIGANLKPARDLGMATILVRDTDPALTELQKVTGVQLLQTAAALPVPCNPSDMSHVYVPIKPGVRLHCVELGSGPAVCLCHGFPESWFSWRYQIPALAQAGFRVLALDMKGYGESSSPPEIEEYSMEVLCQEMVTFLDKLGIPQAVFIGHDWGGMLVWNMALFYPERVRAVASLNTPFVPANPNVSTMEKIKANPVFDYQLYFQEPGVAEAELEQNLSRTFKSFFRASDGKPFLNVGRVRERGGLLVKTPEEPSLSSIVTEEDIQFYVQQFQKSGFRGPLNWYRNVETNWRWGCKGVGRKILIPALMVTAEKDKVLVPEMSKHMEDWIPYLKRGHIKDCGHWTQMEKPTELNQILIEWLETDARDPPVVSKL
Kind of data set: sEH inhibitor screen of canine sEH. Format: biochemical.

Data set [3] is described as follows: Plasma concentrations and pharmacokinetics in the laminitic horse. Conditions: phenylbutazone 3-4 mg/kg BID PO, gabapentin 20 mg/kg BID PO.

The values that follow come from US20200000755A1, “TREATMENT OF INFLAMMATORY DISORDERS IN NON-HUMAN MAMMALS” (THE REGENTS OF THE UNIVERSITY OF CALIFORNIA, priority 2012, published 2020).

Sheep sEH, sequence (A0ACI6PZ20 entry or part of it): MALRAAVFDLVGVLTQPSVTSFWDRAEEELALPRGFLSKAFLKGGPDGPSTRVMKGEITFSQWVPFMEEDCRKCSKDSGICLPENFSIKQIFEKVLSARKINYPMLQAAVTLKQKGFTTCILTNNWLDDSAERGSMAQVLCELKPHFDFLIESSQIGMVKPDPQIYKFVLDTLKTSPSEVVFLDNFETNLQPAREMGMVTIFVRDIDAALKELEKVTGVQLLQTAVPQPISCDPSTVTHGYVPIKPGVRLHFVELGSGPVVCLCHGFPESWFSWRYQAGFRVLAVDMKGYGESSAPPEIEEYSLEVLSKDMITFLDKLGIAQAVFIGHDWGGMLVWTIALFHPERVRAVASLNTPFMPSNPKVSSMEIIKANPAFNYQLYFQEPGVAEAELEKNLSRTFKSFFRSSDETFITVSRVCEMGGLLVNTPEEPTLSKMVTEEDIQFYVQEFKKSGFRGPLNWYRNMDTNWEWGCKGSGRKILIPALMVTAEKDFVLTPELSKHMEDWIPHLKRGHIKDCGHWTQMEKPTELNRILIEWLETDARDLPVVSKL

In the case of `CCCCCCCCCCCCNC(=O)NC12CC3CC(CC(C3)C1)C2` [ADU, N-Adamantyl-N′-dodecyl urea], the “activity on sEH” value at sEH is given as “particularly high activity on sEH”.

Consider `CC(=O)Oc1ccccc1C(=O)O` [Aspirin], for which the “COX-2 (IC50)/COX-1 (IC50) ratio” value in the data set with COX-1 and COX-2 was 0.32.

In general, IC50 refers to the concentration needed to halve the response being measured. On to `CS(=O)(=O)N1CCC(NC(=O)Nc2ccc(OC(F)(F)F)cc2)CC1` [compound 1709, 1-(1-methylsulfonyl-piperidin-4-yl)-3-(4-trifluoromethoxy-phenyl)-urea], for which the IC50 at Sheep sEH was 30 nM.

As for `O=C(Nc1ccc(OC(F)(F)F)cc1)N[C@H]1CC[C@H](Oc2ccc(C(=O)O)cc2)CC1` [compound 1728, trans-4-{4-[3-(4-Trifluoromethoxy-phenyl)-ureido]-cyclohexyloxy}-benzoic acid], the “adverse effects in clinical exams and blood work” value in data set [1] was “No adverse effects were observed”. In addition, in data set [2], the “daily plasma concentration, peak (did not reach)” value was under 2.5 µM and the “daily plasma concentration, trough (fell below on one occasion in the first day)” value is reported as “below 30 nM”. On to `CCS(=O)(=O)N1CCC(NC(=O)Nc2ccc(OC(F)(F)F)cc2)CC1` [compound 2213, 1-(1-ethylsulfonyl-piperidin-4-yl)-3-(4-trifluoromethoxy-phenyl)-urea], for which the IC50 on Sheep sEH stood at 33 nM. For `O=C(Nc1ccc(OC(F)(F)F)cc1)NC1CCN(C(=O)C2CC2)CC1` [compound 2214, 1-(1-(cyclopropanecarbonyl)piperidin-4-yl)-3-(4-(trifluoromethoxy)phenyl)urea], the IC50 at Sheep sEH amounted to 18 nM. In turn, `CS(=O)(=O)NC(=O)c1ccc(O[C@H]2CC[C@H](NC(=O)Nc3ccc(OC(F)(F)F)cc3)CC2)cc1` [compound 2728, N-(methylsulfonyl)-4-(trans-4-(3-(4-trifluoromethoxy-phenyl)-ureido)-cyclohexyloxy)-benzamide] yielded an IC50 at Canine sEH of 100 nM. Still for that read-out and setting: as for `O=C(Nc1ccccc1F)N[C@H]1CC[C@H](Oc2ccc(C(=O)O)cc2)CC1` [compound 2736, 4-(trans-4-(3-(2-fluorophenyl)-ureido)-cyclohexyloxy)-benzoic acid], the figure is 39 nM; as for `Cc1oc(=O)oc1COC(=O)c1ccc(O[C@H]2CC[C@H](NC(=O)Nc3ccc(OC(F)(F)F)cc3)CC2)cc1` [compound 2796, (5-methyl-2-oxo-1,3-dioxol-4-yl)methyl 4-((1r,4r)-4-(3-(4-(trifluoromethoxy)-phenyl)-ureido)-cyclohexyloxy)-benzoate], 38 nM. In turn, `O=C(Nc1ccc(Oc2ccc(C(=O)O)cc2)cc1)Nc1ccc(OC(F)(F)F)cc1` [compound 2803, 4-(4-(3-(4-(trifluoromethoxy)-phenyl)-ureido)-phenoxy)-benzoic acid] gave an IC50 against Canine sEH of 42 nM. On the same count and under the same terms, under `O=C(Nc1ccc(OC(F)F)cc1)N[C@H]1CC[C@H](Oc2ccc(C(=O)O)cc2)CC1` [compound 2805, 4-(trans-4-(3-(4-(difluoromethoxy)-phenyl)-ureido)-cyclohexyloxy)-benzoic acid] stands 19 nM.

On to `O=C(Nc1ccc(OC(F)(F)F)cc1)N[C@H]1CC[C@H](Oc2ccc(-c3nnn[nH]3)cc2)CC1` [compound 2806, 1-(trans-4-(4-(1H-tetrazol-5-yl)-phenoxy)-cyclohexyl)-3-(4-(trifluoromethoxy)-phenyl)-urea], for which the IC50 against Canine sEH is under 1 nM. Still for that read-out and setting: under `O=C(Nc1ccc(OC(F)(F)F)cc1)Nc1ccc(Oc2ccc(C(=O)O)cc2)cc1F` [compound 2807, 4-(3-fluoro-4-(3-(4-(trifluoromethoxy)-phenyl)-ureido)-phenoxy)-benzoic acid] stands 14 nM.

As for `NCC1(CC(=O)O)CCCCC1` [gabapentin], the “highest measured plasma concentration” value in data set [3] was 18 µM.

`COc1ccc2c(c1)c(CC(=O)O)c(C)n2C(=O)c1ccc(Cl)cc1` [indomethacin]: in the data set with COX-1 and COX-2, the “COX-2 (IC50)/COX-1 (IC50) ratio” value is recorded as 33.
